Assay results published in patent US12570641B2, “Solid forms of a CDK4 inhibitor” (Pfizer Inc., priority 2020, dated 2026).
Values belong to the compound of their own block, whether it stands above or below them.

Legend:
Type in all cases: physicochemical
[1] = Moisture sorption (hygroscopicity), water sorption and desorption; details: for form change at the completion of the moisture sorption run by PXRD: 25° C.; for Weight Gain (%) at 25° C., 60% RH: comparative summary of Forms 1, 2, 6 and 8
Method: Water sorption and desorption studies were conducted on an automated vapor sorption analyzer (TA instruments Q5000 SA). The microbalance was calibrated using a 100 mg standard weight. The relative humidity (RH) sensor was calibrated at 5.0, 11.3, 32.8, 52.8, 75.3, and 84.3% RH (25° C.) using saturated salt solutions. Approximately 10-20 mg of the powder sample was placed in the quartz sample holder and dried at 3% RH at 60° C. The attainment of equilibrium was assumed when the weight change of the sample was <0.001 wt % in 5 min or by a maximum equilibration time of 300 minutes. […] Again, the attainment of equilibrium was assumed when the weight change of the sample was <0.001 wt % in 5 min or by a maximum equilibration time of 300 minutes. The weight gain at 60% RH is based on the weight after the initial drying step.
Water sorption and desorption studies of PF-07220060 monohydrate (Form 2), prepared as described in Example 2, were conducted according to General Method 6.
Water sorption and desorption studies of PF-07220060 hydrate (Form 1), prepared as described in Example 5B, were conducted according to General Method 6.
Comparative hygroscopicity experiments were performed using moisture sorption analysis according to General Method 6. PF-07220060 Forms 1, 2, 6, and 8 were evaluated using moisture sorption at 25° C., 60% RH. A form change at the completion of the run was not detected for any of the forms by PXRD.

[2] = Competitive slurry experiments in 2-propanol/1% water; details: 2-propanol/1% water, room temperature, 15 hours, PXRD
Method: Competitive slurry experiments were performed between Form 1 and Form 2 (Entry 1), and between Form 6 and Form 2 (Entry 2), in 2-propanol/1% water. Entry 1: […] The solids were collected with vacuum filtration and analyzed with PXRD. PXRD data was consistent with PF-07220060 monohydrate (Form 2). Entry 2: […] The solids were collected with vacuum filtration and analyzed with PXRD. PXRD data was consistent with PF-07220060 monohydrate (Form 2).

[3] = Thermal stability by Differential Scanning Calorimetry (DSC)
Method: Modulated Differential scanning calorimetry (DSC) measurements were performed with Discovery DSC (TA instruments) equipped with a refrigerated cooling accessory. All the experiments were performed in standard/Tzero aluminum pans. The cell constant was determined using indium and temperature calibration was performed using indium and tin as standards. All the measurements were done under continuous dry nitrogen purge (50 mL/min). Approximately 1-5 mg of solid sample was weighed into a Tzero aluminum pan, sealed non-hermetically and heated from −40° C. to 220° C. at 10° C./min heating rate. The experimental data were analyzed using commercially available software (TA Universal Analysis 2000/Trios software, TA Instruments).
(§1) Thermal stability data were obtained through thermogravimetric analysis (TGA) according to General Method 4, and Differential Scanning Calorimetry (DSC) scan according to General Method 5A.

[4] = Thermal stability by thermogravimetric analysis (TGA)
Method: Thermogravimetric analysis was conducted using a Discovery TGA (TA instruments) thermogravimetric analyzer. Samples of approximately 10 mg were weighed into aluminum pans and heated from ambient ([…]) to 250° C. at 10° C./minute heating rate under nitrogen purge (10 mL/min for both sample chamber and balance).
as §1

[5] = Slurry conversion in 10% MeCN/water, form by PXRD; details: room temperature
Method: Crystalline PF-07220060 hydrate (Form 1) (25 mg) prepared as described in Example 1, Vial A was suspended in 10% MeCN/water (0.5 mL) and slurried at room temperature for […].

form change at the completion of the moisture sorption run by PXRD ([1]; 60% RH): not detected
Weight gain (%) ([1]; 25 °C, RH 0%, listed as PF-07220060 hydrate (Form 1)): 0.05%
Weight gain (%) ([1]; 25 °C, RH 10%, desorption, listed as PF-07220060 hydrate (Form 1)): 1.26%
Weight gain (%) ([1]; 25 °C, RH 10%, sorption, listed as PF-07220060 hydrate (Form 1)): 1.23%
Weight gain (%) ([1]; 25 °C, RH 20%, desorption, listed as PF-07220060 hydrate (Form 1)): 2.38%
Weight gain (%) ([1]; 25 °C, RH 20%, sorption, listed as PF-07220060 hydrate (Form 1)): 2.34%
Weight gain (%) ([1]; 25 °C, RH 30%, desorption, listed as PF-07220060 hydrate (Form 1)): 2.87%
Weight gain (%) ([1]; 25 °C, RH 30%, sorption, listed as PF-07220060 hydrate (Form 1)): 2.84%
Weight gain (%) ([1]; 25 °C, RH 40%, desorption, listed as PF-07220060 hydrate (Form 1)): 3.13%
Weight gain (%) ([1]; 25 °C, RH 40%, sorption, listed as PF-07220060 hydrate (Form 1)): 3.10%
Weight gain (%) ([1]; 25 °C, RH 50%, desorption, listed as PF-07220060 hydrate (Form 1)): 3.30%
Weight gain (%) ([1]; 25 °C, RH 50%, sorption, listed as PF-07220060 hydrate (Form 1)): 3.26%
Weight gain (%) ([1]; 25 °C, RH 60%, desorption, listed as PF-07220060 hydrate (Form 1)): 3.41%
Weight gain (%) ([1]; 25 °C, RH 60%, sorption, listed as PF-07220060 hydrate (Form 1)): 3.37%
Weight gain (%) ([1]; 25 °C, RH 70%, desorption, listed as PF-07220060 hydrate (Form 1)): 3.49%
Weight gain (%) ([1]; 25 °C, RH 70%, sorption, listed as PF-07220060 hydrate (Form 1)): 3.46%
Weight gain (%) ([1]; 25 °C, RH 80%, desorption, listed as PF-07220060 hydrate (Form 1)): 3.55%
Weight gain (%) ([1]; 25 °C, RH 80%, sorption, listed as PF-07220060 hydrate (Form 1)): 3.53%
Weight gain (%) ([1]; 25 °C, RH 90%, listed as PF-07220060 hydrate (Form 1)): 3.61%
Weight gain (%) ([1]; 60 °C, RH 0% (initial drying step)): 0.00%
Weight Gain (%) at 25° C., 60% RH [1]: ~3%
Out-going form [2]: converted to Form 2
Thermal stability via DSC (° C.) ([3]; listed as Form 1 (hydrate)): 0 °C
Thermal stability via TGA (° C.) ([4]; listed as Form 1 (hydrate)): 20 °C
Compound: CC(C)n1c(C(C)(C)O)nc2c(F)cc(-c3nc(N[C@@H]4CCOC[C@H]4O)ncc3Cl)cc21 [Form 1, 1,5-anhydro-3-({5-chloro-4-[4-fluoro-2-(2-hydroxypropan-2-yl)-1-(propan-2-yl)-1H-benzimidazol-6-yl]pyrimidin-2-yl}amino)-2,3-dideoxy-D-threo-pentitol]
form after slurry by PXRD [5]: converted to PF-07220060 monohydrate (Form 2)

form change at the completion of the moisture sorption run by PXRD ([1]; 60% RH): not detected
Weight Gain (%) at 25° C., 60% RH [1]: <1%
hygroscopicity relative to Form 8 and Form 1 ([1]; moisture sorption at 25° C., 60% RH): reduced hygroscopicity
Out-going form [2]: converted to Form 2
thermal stability relative to Form 1 and Form 8 ([3]; TGA and DSC): improved thermal stability
Thermal stability via DSC (° C.) ([3]; listed as Form 6 (anhydrous)): 195 °C
Thermal stability via TGA (° C.) ([4]; listed as Form 6 (anhydrous)): 195 °C
Compound: CC(C)n1c(C(C)(C)O)nc2c(F)cc(-c3nc(N[C@@H]4CCOC[C@H]4O)ncc3Cl)cc21 [Form 6, 1,5-anhydro-3-({5-chloro-4-[4-fluoro-2-(2-hydroxypropan-2-yl)-1-(propan-2-yl)-1H-benzimidazol-6-yl]pyrimidin-2-yl}amino)-2,3-dideoxy-D-threo-pentitol]

form change at the completion of the moisture sorption run by PXRD ([1]; 60% RH): not detected
Weight Gain (%) at 25° C., 60% RH [1]: ~2%
Thermal stability via DSC (° C.) ([3]; listed as Form 8 (amorphous)): −10 °C
Thermal stability via TGA (° C.) ([4]; listed as Form 8 (amorphous)): 20 °C
Compound: CC(C)n1c(C(C)(C)O)nc2c(F)cc(-c3nc(N[C@@H]4CCOC[C@H]4O)ncc3Cl)cc21 [Form 8, 1,5-anhydro-3-({5-chloro-4-[4-fluoro-2-(2-hydroxypropan-2-yl)-1-(propan-2-yl)-1H-benzimidazol-6-yl]pyrimidin-2-yl}amino)-2,3-dideoxy-D-threo-pentitol]
